Each structure is given as a SMILES string.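 Compound exposure: 48 hours, 5 concentrations, 96-well plates. TGI: concentration producing complete growth inhibition.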

Experimental findings from PubChem BioAssay (NCI) are described below.

Among the test systems are DMS 114 small cell lung; HL-60(TB) leukemia; SNB-78 CNS; SW-620 colon; DLD-1 colon; LXFL 529 NSCLC; HOP-18 NSCLC; M19-MEL melanoma; RXF-631 renal; KM20L2 colon; XF 498 CNS; DMS 273 small cell lung; T-47D breast; BT-549 breast; NCI/ADR-RES ovarian.
Holding throughout (test): NCI-60 cell line screen, 48 h

With `COC(=O)CC1CC2(C(=O)OC)c3[nH]c4ccccc4c3CCN2C1=O` (stereo unspecified), the TGI in the assay with DMS 114 small cell lung, in the assay on HL-60(TB) leukemia, in the assay on SNB-78 CNS, with SW-620 colon, in the assay with DLD-1 colon and with LXFL 529 NSCLC was over 100 µM in each case. Besides, the TGI in the assay with HOP-18 NSCLC was over 100 µM; in the assay on M19-MEL melanoma, over 100 µM; in the assay with RXF-631 renal it was 31.3 µM; in the assay with KM20L2 colon, over 100 µM; in the assay on XF 498 CNS, over 100 µM; in the assay with DMS 273 small cell lung, over 100 µM.

Regarding `N#CC(NNC(=O)c1ccccc1O)c1c(O)ccc2ccccc12` (stereo unspecified), the TGI in the assay on T-47D breast is 18.7 µM; in the assay with DMS 114 small cell lung it was 5.14 µM; in the assay with HL-60(TB) leukemia it was 12.2 µM; in the assay on SNB-78 CNS, over 100 µM; in the assay on SW-620 colon, over 60.9 µM; in the assay on DLD-1 colon, over 100 µM. The TGI was 33.4 µM with LXFL 529 NSCLC; 8.2 µM in the assay on HOP-18 NSCLC; 9.62 µM in the assay with M19-MEL melanoma; over 54.8 µM with BT-549 breast; 68 µM in the assay with KM20L2 colon; 19.3 µM with NCI/ADR-RES ovarian. Further, in the assay on DMS 273 small cell lung, the TGI was 14.2 µM.

For `Cc1ccc(NC(=O)C(=O)Cc2cccc[n+]2[O-])cc1C`, the TGI with DMS 114 small cell lung, in the assay on HL-60(TB) leukemia, in the assay on SNB-78 CNS, in the assay on SW-620 colon, in the assay on DLD-1 colon and with LXFL 529 NSCLC was over 100 µM in each case. For the same compound, the TGI in the assay on HOP-18 NSCLC, in the assay on M19-MEL melanoma, in the assay with KM20L2 colon and in the assay with XF 498 CNS was over 100 µM in each case.

With `CC1=CCN(c2ccccn2)OC1c1ccccc1` (stereo unspecified), the TGI in the assay on DMS 114 small cell lung, in the assay on HL-60(TB) leukemia, in the assay with SNB-78 CNS, in the assay with SW-620 colon, in the assay on DLD-1 colon and with LXFL 529 NSCLC was over 100 µM in each case. Besides, the TGI in the assay with HOP-18 NSCLC, in the assay with M19-MEL melanoma, with RXF-631 renal, in the assay on KM20L2 colon, with XF 498 CNS and in the assay with DMS 273 small cell lung was over 100 µM throughout.

Consider `Cn1c(NC(=O)NC23CC4CC(CC(C4)C2)C3)nc2ccccc21`, for which the TGI in the assay with HL-60(TB) leukemia is over 100 µM; in the assay on SNB-78 CNS, 97 µM; in the assay with SW-620 colon, over 100 µM; in the assay with DLD-1 colon it was over 100 µM; with LXFL 529 NSCLC, over 100 µM; with HOP-18 NSCLC, over 100 µM. Further, the TGI with M19-MEL melanoma, with KM20L2 colon and in the assay with DMS 273 small cell lung was over 100 µM each time.

With `CC(C)=CC(=O)c1c(C(=O)O)nc2ccccc2[n+]1[O-]`, the TGI in the assay with DMS 114 small cell lung, in the assay with HL-60(TB) leukemia, with SNB-78 CNS, with SW-620 colon, in the assay with DLD-1 colon and in the assay with LXFL 529 NSCLC was over 100 µM each time. Further, the TGI in the assay on M19-MEL melanoma, in the assay with RXF-631 renal, with KM20L2 colon and with DMS 273 small cell lung was over 100 µM each time.

Regarding `COc1ccc(N=Nc2c(N)nn3c(SC)c(C#N)c(N)nc23)cc1`, the TGI in the assay on T-47D breast turned out to be 4.3 µM; in the assay with HL-60(TB) leukemia it was 6.07 µM; in the assay on SW-620 colon, 22.8 µM; in the assay on BT-549 breast, 49.6 µM; with NCI/ADR-RES ovarian, 49.8 µM.

`O=CC1=CCC2c3[nH]c4ccccc4c3CCN2C1` (stereo unspecified): the TGI in the assay with DMS 114 small cell lung was 266 µM; in the assay on HL-60(TB) leukemia, over 396 µM; with SW-620 colon it was over 396 µM; with DLD-1 colon, 226 µM; in the assay with LXFL 529 NSCLC, 137 µM; in the assay with HOP-18 NSCLC, over 396 µM. The TGI in the assay on M19-MEL melanoma was 206 µM; in the assay on KM20L2 colon, over 396 µM; with XF 498 CNS, 213 µM; in the assay with DMS 273 small cell lung, 212 µM.

For the compound `Clc1ccc(C2=NCON=C2c2ccc(Cl)cc2)cc1`, the TGI in the assay with T-47D breast was 22.8 µM; with HL-60(TB) leukemia, 30.9 µM; in the assay with SW-620 colon, 50.1 µM; with BT-549 breast, 41.7 µM; with NCI/ADR-RES ovarian, 71.2 µM.

`Cc1cc(=O)n2nc(CSc3nnc(Sc4cc(O)ccc4O)s3)sc2n1`: the TGI is 73.6 µM in the assay on T-47D breast; 54.1 µM in the assay on HL-60(TB) leukemia; 44.5 µM in the assay with SW-620 colon; over 100 µM in the assay with BT-549 breast; over 100 µM in the assay with NCI/ADR-RES ovarian.

For the compound `CCOC(=O)C1CCC(=O)N1C(=O)c1ccc(Cl)cc1` (stereo unspecified), the TGI in the assay with T-47D breast, in the assay with HL-60(TB) leukemia, in the assay on SW-620 colon, with BT-549 breast and in the assay with NCI/ADR-RES ovarian was over 100 µM throughout.

As to `COc1ccc(C23OCC(Cc4cc(OC)c(OC)cc42)C3CO)cc1OC` (stereo unspecified), the TGI in the assay on T-47D breast, with HL-60(TB) leukemia, in the assay on SW-620 colon, with BT-549 breast and in the assay with NCI/ADR-RES ovarian was over 100 µM throughout.

Consider `O=C1C=C/C(=C/[C@H]2SSC=C[C@]23C=CC(=O)C3)C1`, for which the TGI with T-47D breast is over 100 µM; in the assay with HL-60(TB) leukemia, 15.1 µM; in the assay with SW-620 colon, over 51.5 µM; in the assay on BT-549 breast, 46.8 µM; with NCI/ADR-RES ovarian, 68.1 µM.
